One data set has as its system non-GBM tumor cell lines. Particulars: cited from earlier work.
Data set [1] concerns Caspase-3 in U87-MG cells. The experiment in a line: Caspase-3 levels as a measure of apoptosis (EnzCheck Caspase-3 Assay Kit). The data set is classed as cell-based. Particulars: 15 μM AS1411 for 72 hrs vs 100 μM TMZ for 48 hrs. The protocol: Caspase activity was measured with a […]. Caspase levels were normalized to total cellular protein with BCA protein assay. Error bars show mean +/−SD.
U87-MG cells were seeded onto standard 60 mm cell culture dishes at 50% confluency. After 24 hrs, 15 μM of AS1411 in DMEM and 100 μM of temozolomide (TMZ) in DMEM were added to each dish. Cells were harvested at 72 hrs and 48 hrs respectively and analyzed using the EnzCheck Caspase-3 Assay Kit from Molecular Probes utilizing the Z-DEVD-AMC substrate (incubated for 30 minutes). Fluorescence excitation/emission: 340/440 nm) was measured with a standard fluorometer.

Data set [2] has as its system U87-MG cells. The experiment in a line: Cell surface PS (Annexin V-FITC) and propidium iodide by flow cytometry. The data set is classed as cell-based. Particulars: 6 μM AS1411. As to the method:
FIG. 3. […] Error bars show mean +/−SD with **p<0.02 by Student's t-test when compared to control (untreated) cells.
U87-MG cells were seeded onto standard 60 mm cell culture dishes at ˜50% confluency. After 24 hrs, 6 μM of AS1411 in DMEM was added to each dish at 24, 48, and 72 hour time points. Cells were then stained with Annexin V-FITC using a standard staining protocol and evaluated for surface PS levels using flow cytometry.

Data set [3] has as its system U87-MG cells. Particulars: cited from earlier work.
The test system of data set [4] is U87-MG cells. The experiment in a line: Methuosis-like vacuolization by microscopy. The data set is classed as cell-based. Particulars: 15 μM AS1411 for 72 hrs. As to the method:
FIG. 5. A) AS1411 induces methuosis-like vacuolization in U87-MG Cells, untreated U87-MG cells; B) […] cells treated with 10 μM MIPP for 24 hrs; C) U87-MG cells treated with 15 μM AS1411 for 72 hrs. D) U87-MG cells treated with 15 μM AS1411 for 192 hrs. E) Quantification of number of cells with >5 vacuoles.
U87-MG cells were grown to approximately 50% confluency in standard flat bottom 6 well cell culture plates. The cells were then treated with either 10 μM MIPP (a compound previously shown to induce methuosis) or 15 μM AS1411 for 72 hrs. Photos were taken comparing the two treatment wells with untreated control cells, using a microscope with camera.

pIC50: −log10 of the molar value.

On to “5′-d(GGTGGTGGTGGTTGTGGTGGTGGTGG)-3′ [AS1411]”, for which the results for the pIC50 with non-GBM tumor cell lines and with U87-MG cells [3] were 6.00 and 5.00, respectively. The caspase activity result in data set [1] is reported as “does not increase caspase activity as much as the apoptotic drug TMZ”. In addition, the “propidium iodide (PI) positive (dead) cells” value with U87-MG cells [2] is on record as “without increasing PI”. For the same substance, the “surface PS (Annexin V-FITC)” value in the data set with U87-MG cells [2] (24, 48, 72 hrs) was “increases surface PS”. The “morphologic changes, vacuolization” value in the data set with U87-MG cells [4] is listed as “induces morphologic changes including vacuolization”.

Source of the values: patent US11903999B2, “Combination of AS1411 and SAPC-DOPS for the treatment of glioblastoma multiforme” (University of Cincinnati, priority 2017, dated 2024).
